Source: patent US20230212172A1, “ARYLACETAMIDE ANALOGS OF PIPERAZINE-[1,2,4]TRIAZOLO[4,3-B]PYRIDAZINES” (University of Vermont and State Agricultural College, priority 2020, published 2023)
Read-outs that look alike come from different tables or passages of the source.

Key:
[1] = test system: C. parvum; experiment: In vitro inhibition of C. parvum development in HCT-8 cells; format: cell-based; settings: Cryptosporidium parvum
[2] = test system: cryptosporidiosis; settings: cited from earlier work
[3] = HCT-8 cells, Table 4, read-out: EC50 for inhibition of C. parvum development in HCT-8 cells
[4] = average EC50, C. parvum in HCT-8 cells, read-out: Cp HTC-8 Avg EC50

Row | EC50 [1, 3] | SMILES | other results
1 | 5.56 µM | Cc1ccc(CC(=O)N2CCN(c3ccc4nncn4n3)CC2)cc1F [Example 2757, 2-(3-fluoro-4-methylphenyl)-1-(4-{[1,2,4]triazolo[4,3-b]pyridazin-6-yl}piperazin-1-yl)ethan-1-one] | –
2 | 16.4 µM | COc1cccc(CC(=O)N2CCN(c3ccc4nncn4n3)CC2)c1 [Example 2762, 2-(3-methoxyphenyl)-1-(4-{[1,2,4]triazolo[4,3-b]pyridazin-6-yl}piperazin-1-yl)ethan-1-one] | –
3 | 0.292 µM | Cc1cc(CC(=O)N2CCN(c3ccc4nncn4n3)CC2)ccc1Cl [Example 2758, 2-(4-chloro-3-methylphenyl)-1-(4-{[1,2,4]triazolo[4,3-b]pyridazin-6-yl}piperazin-1-yl)ethan-1-one] | EC50 [1, 4]: 0.279 µM
4 | 0.773 µM | O=C(Cc1ccc(Br)c(F)c1)N1CCN(c2ccc3nncn3n2)CC1 [Example 10240, 2-(4-bromo-3-fluorophenyl)-1-(4-{[1,2,4]triazolo[4,3-b]pyridazin-6-yl}piperazin-1-yl)ethan-1-one] | EC50 [1, 4]: 0.773 µM
5 | 3.61 µM | O=C(Cc1cccc(Cl)c1)N1CCN(c2ccc3nncn3n2)CC1 [Example 2764, 2-(3-chlorophenyl)-1-(4-{[1,2,4]triazolo[4,3-b]pyridazin-6-yl}piperazin-1-yl)ethan-1-one] | –
6 | 12.4 µM | O=C(Cc1ccc2ccccc2c1)N1CCN(c2ccc3nncn3n2)CC1 [Example 2749, 2-(naphthalen-2-yl)-1-(4-{[1,2,4]triazolo[4,3-b]pyridazin-6-yl}piperazin-1-yl)ethan-1-one] | –
7 | 0.24 µM | O=C(Cc1ccc(F)c(Cl)c1)N1CCN(c2ccc3nncn3n2)CC1 [Example 2763, 2-(3-chloro-4-fluorophenyl)-1-(4-{[1,2,4]triazolo[4,3-b]pyridazin-6-yl}piperazin-1-yl)ethan-1-one] | EC50 [1, 4]: 0.238 µM
8 | > 25 µM | O=C(Cc1ccc(Cl)cc1Cl)N1CCN(c2ccc3nncn3n2)CC1 [Example 2721, 2-(2,4-dichlorophenyl)-1-(4-{[1,2,4]triazolo[4,3-b]pyridazin-6-yl}piperazin-1-yl)ethan-1-one] | –

Further lines, the compound ahead of its results:

Row | SMILES | EC50 [1, 3] | other results
9 | CC(=O)Oc1ccccc1C(=O)Nc1ncc([N+](=O)[O-])s1 [Nitazoxanide] | – | efficacy in cryptosporidiosis ([2]; AIDS patients): no more effective than placebo; efficacy in cryptosporidiosis ([2]; children): partial efficacy
10 | O=C(Cc1cccc(S(F)(F)(F)(F)F)c1)N1CCN(c2ccc3nncn3n2)CC1 [Example 10442, 2-[3-(pentafluoro-λ^6-sulfanyl)phenyl]-1-(4-{[1,2,4]triazolo[4,3-b]pyridazin-6-yl}piperazin-1-yl)ethan-1-one] | 1.12 µM | –
11 | CC(C)(C)OC(=O)NCC#Cc1ccc(CC(=O)N2CCN(c3ccc4nncn4n3)CC2)cc1 [Example 2811, Tert-butyl N-(3-{4-[2-oxo-2-(4-{[1,2,4]triazolo[4,3-b]pyridazin-6-yl}piperazin-1-yl)ethyl]phenyl}prop-2-yn-1-yl)carbamate] | 12.8 µM | –
12 | O=C(Cc1ccc(Cl)cc1)N1CCN(c2ccc3nncn3n2)CC1 [Example 2634, 2-(4-chlorophenyl)-1-(4-{[1,2,4]triazolo[4,3-b]pyridazin-6-yl}piperazin-1-yl)ethan-1-one] | – | EC50 [1, 4]: 0.88 µM
13 | O=C(Cc1ccc(-c2ccccc2)cc1)N1CCN(c2ccc3nncn3n2)CC1 [Example 2809, 2-{[1,1′-biphenyl]-4-yl}-1-(4-{[1,2,4]triazolo[4,3-b]pyridazin-6-yl}piperazin-1-yl)ethan-1-one] | > 25 µM | –
14 | O=C(Cc1cc(Cl)cc(C(F)(F)F)c1)N1CCN(c2ccc3nncn3n2)CC1 [Example 10479, 2-[3-chloro-5-(trifluoromethyl)phenyl] -1-(4-{[1,2,4]triazolo[4,3-b]pyridazin-6-yl}piperazin-1-yl)ethan-1-one] | 0.407 µM | EC50 [1, 4]: 0.407 µM
15 | O=C(Cc1ccc(Cl)c(Cl)c1)N1CCN(c2ccc3nnc(-c4ccccc4)n3n2)CC1 [Example 2807, 2-(3,4-dichlorophenyl)-1-(4-{3-phenyl-[1,2,4]triazolo[4,3-b]pyridazin-6-yl}piperazin-1-yl)ethan-1-one] | 15 µM | –
16 | O=C(Cc1c(F)c(F)c(F)c(F)c1F)N1CCN(c2ccc3nncn3n2)CC1 [Example 10090, 2-(2,3,4,5,6-pentafluorophenyl)-1-(4-{[1,2,4]triazolo[4,3-b]pyridazin-6-yl}piperazin-1-yl)ethan-1-one] | > 50 µM | –
17 | O=C(Cc1ccc([N+](=O)[O-])cc1)N1CCN(c2ccc3nncn3n2)CC1 [Example 2755, 2-(4-nitrophenyl)-1-(4-{[1,2,4]triazolo[4,3-b]pyridazin-6-yl}piperazin-1-yl)ethan-1-one] | 2.58 µM | –
18 | COc1ccc(CC(=O)N2CCN(c3ccc4nncn4n3)CC2)cc1 [Example 2761, 2-(4-methoxyphenyl)-1-(4-{[1,2,4]triazolo[4,3-b]pyridazin-6-yl}piperazin-1-yl)ethan-1-one] | 16.4 µM | –
19 | O=C(Cc1ccc(Cl)c(Cl)c1)N1CCN(c2ccc3nnc(-c4ccnc(C(F)(F)F)c4)n3n2)CC1 [Example 10262, 2-(3,4-dichlorophenyl)-1-(4-{3-[2-(trifluoromethyl)pyridin-4-yl]-[1,2,4]triazolo[4,3-b]pyridazin-6-yl}piperazin-1-yl)ethan-1-one] | 6.11 µM | –
20 | O=C(Cc1ccc(Cl)c(Cl)c1)N1CCN(c2ccc3nnc(Cc4ccccc4)n3n2)CC1 [Example 10249, 1-(4-{3-benzyl-[1,2,4]triazolo[4,3-b]pyridazin-6-yl}piperazin-1-yl)-2-(3,4-dichlorophenyl)ethan-1-one] | 16 µM | –
21 | O=C(Cc1cccc2ccccc12)N1CCN(c2ccc3nncn3n2)CC1 [Example 2257, 2-(naphthalen-1-yl)-1-(4-{[1,2,4]triazolo[4,3-b]pyridazin-6-yl}piperazin-1-yl)ethan-1-one] | 17.1 µM | –
